Measured values from ChEMBL document CHEMBL6121003, “Design, synthesis, and pharmacological evaluation of triazine-based PI3K/mTOR inhibitors for the potential treatment of non-small cell lung cancer” (Eur J Med Chem, 2025).

Key:
HCC827 = assay: Antiproliferative activity against human HCC827 cells measured after 48 hrs by MTT assay; assay type: functional, cell-based; conditions: HCC827, 48 h
[1] = target: Phosphatidylinositol 4,5-bisphosphate 3-kinase catalytic subunit alpha isoform (Homo sapiens, UniProt P42336)
Sequence of Phosphatidylinositol 4,5-bisphosphate 3-kinase catalytic subunit alpha isoform (P42336 whole entry, canonical isoform): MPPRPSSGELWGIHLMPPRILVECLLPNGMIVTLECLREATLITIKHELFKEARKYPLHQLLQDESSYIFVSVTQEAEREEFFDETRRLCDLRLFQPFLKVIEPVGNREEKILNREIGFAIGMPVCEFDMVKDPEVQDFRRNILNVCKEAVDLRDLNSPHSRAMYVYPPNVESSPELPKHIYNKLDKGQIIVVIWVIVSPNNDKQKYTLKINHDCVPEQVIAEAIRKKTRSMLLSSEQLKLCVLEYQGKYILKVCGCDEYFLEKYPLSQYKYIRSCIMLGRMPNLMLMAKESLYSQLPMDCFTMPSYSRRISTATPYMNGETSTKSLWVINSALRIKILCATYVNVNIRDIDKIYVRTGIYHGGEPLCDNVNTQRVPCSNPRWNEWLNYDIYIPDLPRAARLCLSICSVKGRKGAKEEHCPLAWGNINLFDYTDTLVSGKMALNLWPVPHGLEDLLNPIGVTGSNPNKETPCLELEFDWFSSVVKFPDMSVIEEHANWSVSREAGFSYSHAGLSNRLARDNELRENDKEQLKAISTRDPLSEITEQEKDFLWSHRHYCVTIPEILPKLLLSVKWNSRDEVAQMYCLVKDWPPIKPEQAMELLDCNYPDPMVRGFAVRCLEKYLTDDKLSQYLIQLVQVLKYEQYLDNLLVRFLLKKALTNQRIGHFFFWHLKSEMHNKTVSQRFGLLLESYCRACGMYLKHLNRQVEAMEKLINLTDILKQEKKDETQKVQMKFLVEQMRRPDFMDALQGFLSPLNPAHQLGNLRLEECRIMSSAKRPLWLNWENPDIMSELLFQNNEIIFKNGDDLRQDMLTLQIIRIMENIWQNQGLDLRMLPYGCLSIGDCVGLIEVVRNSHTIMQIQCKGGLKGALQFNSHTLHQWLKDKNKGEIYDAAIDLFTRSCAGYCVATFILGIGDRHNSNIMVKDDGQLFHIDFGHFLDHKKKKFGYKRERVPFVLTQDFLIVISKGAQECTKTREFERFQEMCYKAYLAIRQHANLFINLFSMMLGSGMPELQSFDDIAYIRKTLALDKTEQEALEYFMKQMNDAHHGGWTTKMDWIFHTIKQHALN
Description: Inhibition of PI3Kalpha (unknown origin) using PIP2 as substrate measured after 1 hr in presence of ATP by ADP-glo luminescence assay

PC-9 = assay: Antiproliferative activity against human PC-9 cells measured after 48 hrs by MTT assay; assay type: functional, cell-based; conditions: PC-9, 48 h
CYP3A4 = CYP3A4 (Homo sapiens, UniProt P08684); assay: Inhibition of CYP3A4 (unknown origin) at 10 uM relative to control; assay type: ADME
Sequence of CYP3A4 (P08684 whole entry): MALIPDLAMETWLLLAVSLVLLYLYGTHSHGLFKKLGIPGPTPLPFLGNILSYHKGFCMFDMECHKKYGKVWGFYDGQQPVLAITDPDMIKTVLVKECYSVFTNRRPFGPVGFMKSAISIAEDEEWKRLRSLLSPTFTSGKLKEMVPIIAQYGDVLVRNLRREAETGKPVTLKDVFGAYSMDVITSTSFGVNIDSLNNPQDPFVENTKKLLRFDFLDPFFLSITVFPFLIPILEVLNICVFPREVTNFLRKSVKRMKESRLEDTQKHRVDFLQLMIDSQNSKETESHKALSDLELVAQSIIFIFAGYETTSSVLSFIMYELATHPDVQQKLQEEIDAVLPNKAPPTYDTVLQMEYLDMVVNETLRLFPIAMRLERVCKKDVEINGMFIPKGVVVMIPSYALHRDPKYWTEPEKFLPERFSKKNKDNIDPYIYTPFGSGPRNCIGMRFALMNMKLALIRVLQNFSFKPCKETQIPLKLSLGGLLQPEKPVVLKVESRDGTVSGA

hERG (KCNH2) = hERG (KCNH2) (Homo sapiens, UniProt Q12809); assay: Inhibition of human ERG at 20 uM relative to control; assay type: toxicity
Sequence of hERG (KCNH2) (Q12809 whole entry): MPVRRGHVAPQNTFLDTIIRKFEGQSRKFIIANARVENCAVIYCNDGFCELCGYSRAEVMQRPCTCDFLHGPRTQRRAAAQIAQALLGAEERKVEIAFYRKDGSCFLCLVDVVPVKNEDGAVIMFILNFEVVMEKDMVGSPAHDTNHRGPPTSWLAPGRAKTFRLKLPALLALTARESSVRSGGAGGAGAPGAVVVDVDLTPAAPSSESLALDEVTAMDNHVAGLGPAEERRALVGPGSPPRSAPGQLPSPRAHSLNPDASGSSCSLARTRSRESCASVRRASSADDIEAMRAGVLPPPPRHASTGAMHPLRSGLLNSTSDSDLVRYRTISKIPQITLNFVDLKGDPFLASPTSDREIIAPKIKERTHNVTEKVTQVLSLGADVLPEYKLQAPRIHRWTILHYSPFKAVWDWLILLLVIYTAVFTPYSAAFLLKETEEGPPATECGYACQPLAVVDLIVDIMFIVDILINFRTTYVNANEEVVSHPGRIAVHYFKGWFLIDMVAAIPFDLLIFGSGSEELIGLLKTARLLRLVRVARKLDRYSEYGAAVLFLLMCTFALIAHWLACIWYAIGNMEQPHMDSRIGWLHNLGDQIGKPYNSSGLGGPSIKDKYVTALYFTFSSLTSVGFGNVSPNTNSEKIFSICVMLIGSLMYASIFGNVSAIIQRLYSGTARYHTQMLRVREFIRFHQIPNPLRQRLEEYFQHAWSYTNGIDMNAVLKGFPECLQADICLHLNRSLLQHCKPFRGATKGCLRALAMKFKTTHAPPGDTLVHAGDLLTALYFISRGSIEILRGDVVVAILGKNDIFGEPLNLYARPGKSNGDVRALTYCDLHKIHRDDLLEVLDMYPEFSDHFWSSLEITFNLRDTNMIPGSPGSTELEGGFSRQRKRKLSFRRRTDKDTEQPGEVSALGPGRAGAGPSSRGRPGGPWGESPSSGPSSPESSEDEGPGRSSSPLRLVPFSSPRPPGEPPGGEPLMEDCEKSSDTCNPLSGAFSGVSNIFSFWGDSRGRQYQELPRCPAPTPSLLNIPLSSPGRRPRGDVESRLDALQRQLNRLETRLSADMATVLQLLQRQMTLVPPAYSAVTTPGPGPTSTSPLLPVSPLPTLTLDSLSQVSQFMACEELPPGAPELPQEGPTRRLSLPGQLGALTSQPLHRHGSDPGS

CYP1A2 = target: T1, CYP1A2 (Homo sapiens, UniProt P05177); assay: Inhibition of CYP1A2 (unknown origin) at 10 uM relative to control; assay type: ADME
T1 sequence (P05177 whole entry): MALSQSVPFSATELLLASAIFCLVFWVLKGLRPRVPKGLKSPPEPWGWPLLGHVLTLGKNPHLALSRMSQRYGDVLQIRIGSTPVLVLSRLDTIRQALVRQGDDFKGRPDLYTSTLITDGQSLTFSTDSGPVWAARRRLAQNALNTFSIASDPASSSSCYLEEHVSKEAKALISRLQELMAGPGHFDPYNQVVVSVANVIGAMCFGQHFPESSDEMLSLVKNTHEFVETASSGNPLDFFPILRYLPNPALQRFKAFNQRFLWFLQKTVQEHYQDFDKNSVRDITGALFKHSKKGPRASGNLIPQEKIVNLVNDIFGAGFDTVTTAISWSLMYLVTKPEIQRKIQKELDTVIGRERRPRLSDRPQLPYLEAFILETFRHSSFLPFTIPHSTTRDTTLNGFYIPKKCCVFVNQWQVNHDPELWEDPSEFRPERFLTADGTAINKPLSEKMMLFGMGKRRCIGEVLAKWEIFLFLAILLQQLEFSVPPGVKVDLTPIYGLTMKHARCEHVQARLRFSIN

CYP2D6 = CYP2D6 (Homo sapiens, UniProt P10635); assay: Inhibition of CYP2D6 (unknown origin) at 10 uM relative to control; assay type: ADME
CYP2C9 = CYP2C9 (Homo sapiens, UniProt P11712); assay: Inhibition of CYP2C9 (unknown origin) at 10 uM relative to control; assay type: ADME
[2] = target: T2, Phosphatidylinositol 4,5-bisphosphate 3-kinase catalytic subunit delta isoform (Homo sapiens, UniProt O00329); assay: Inhibition of PI3K delta (unknown origin) using PIP2 as substrate measured after 1 hr in presence of ATP by ADP-glo luminescence assay
T2 sequence (O00329 whole entry): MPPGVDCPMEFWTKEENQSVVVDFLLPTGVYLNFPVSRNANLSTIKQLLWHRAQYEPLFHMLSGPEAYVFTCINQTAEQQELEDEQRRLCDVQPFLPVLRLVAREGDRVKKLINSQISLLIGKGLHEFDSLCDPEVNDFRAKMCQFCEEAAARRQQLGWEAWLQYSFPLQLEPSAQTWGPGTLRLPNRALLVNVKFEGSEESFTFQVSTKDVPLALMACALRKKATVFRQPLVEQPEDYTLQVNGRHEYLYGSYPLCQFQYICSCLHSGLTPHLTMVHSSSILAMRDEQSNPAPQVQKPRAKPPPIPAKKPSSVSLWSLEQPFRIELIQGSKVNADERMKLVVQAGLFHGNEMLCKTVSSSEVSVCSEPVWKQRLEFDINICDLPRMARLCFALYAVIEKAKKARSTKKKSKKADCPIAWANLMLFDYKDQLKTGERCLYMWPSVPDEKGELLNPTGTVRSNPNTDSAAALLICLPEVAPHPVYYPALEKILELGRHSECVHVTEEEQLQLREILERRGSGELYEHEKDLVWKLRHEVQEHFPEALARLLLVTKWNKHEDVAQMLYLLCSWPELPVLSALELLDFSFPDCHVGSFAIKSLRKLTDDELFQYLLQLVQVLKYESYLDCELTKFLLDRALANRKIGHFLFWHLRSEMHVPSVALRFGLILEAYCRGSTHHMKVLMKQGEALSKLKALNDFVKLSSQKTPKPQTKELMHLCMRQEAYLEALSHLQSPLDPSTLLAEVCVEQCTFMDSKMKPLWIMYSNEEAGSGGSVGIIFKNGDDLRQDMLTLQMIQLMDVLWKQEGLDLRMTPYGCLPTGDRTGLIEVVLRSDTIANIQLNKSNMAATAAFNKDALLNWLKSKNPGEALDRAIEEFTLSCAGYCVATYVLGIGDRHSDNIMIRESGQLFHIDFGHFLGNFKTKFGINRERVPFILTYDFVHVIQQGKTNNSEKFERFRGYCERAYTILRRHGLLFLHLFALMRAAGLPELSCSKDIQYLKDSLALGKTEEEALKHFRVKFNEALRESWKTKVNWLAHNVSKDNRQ

[3] = target: Phosphatidylinositol 4,5-bisphosphate 3-kinase catalytic subunit beta isoform (Homo sapiens, UniProt P42338); assay: Inhibition of PI3Kbeta (unknown origin) using PIP2 as substrate measured after 1 hr in presence of ATP by ADP-glo luminescence assay
Sequence of Phosphatidylinositol 4,5-bisphosphate 3-kinase catalytic subunit beta isoform (P42338 whole entry, canonical isoform): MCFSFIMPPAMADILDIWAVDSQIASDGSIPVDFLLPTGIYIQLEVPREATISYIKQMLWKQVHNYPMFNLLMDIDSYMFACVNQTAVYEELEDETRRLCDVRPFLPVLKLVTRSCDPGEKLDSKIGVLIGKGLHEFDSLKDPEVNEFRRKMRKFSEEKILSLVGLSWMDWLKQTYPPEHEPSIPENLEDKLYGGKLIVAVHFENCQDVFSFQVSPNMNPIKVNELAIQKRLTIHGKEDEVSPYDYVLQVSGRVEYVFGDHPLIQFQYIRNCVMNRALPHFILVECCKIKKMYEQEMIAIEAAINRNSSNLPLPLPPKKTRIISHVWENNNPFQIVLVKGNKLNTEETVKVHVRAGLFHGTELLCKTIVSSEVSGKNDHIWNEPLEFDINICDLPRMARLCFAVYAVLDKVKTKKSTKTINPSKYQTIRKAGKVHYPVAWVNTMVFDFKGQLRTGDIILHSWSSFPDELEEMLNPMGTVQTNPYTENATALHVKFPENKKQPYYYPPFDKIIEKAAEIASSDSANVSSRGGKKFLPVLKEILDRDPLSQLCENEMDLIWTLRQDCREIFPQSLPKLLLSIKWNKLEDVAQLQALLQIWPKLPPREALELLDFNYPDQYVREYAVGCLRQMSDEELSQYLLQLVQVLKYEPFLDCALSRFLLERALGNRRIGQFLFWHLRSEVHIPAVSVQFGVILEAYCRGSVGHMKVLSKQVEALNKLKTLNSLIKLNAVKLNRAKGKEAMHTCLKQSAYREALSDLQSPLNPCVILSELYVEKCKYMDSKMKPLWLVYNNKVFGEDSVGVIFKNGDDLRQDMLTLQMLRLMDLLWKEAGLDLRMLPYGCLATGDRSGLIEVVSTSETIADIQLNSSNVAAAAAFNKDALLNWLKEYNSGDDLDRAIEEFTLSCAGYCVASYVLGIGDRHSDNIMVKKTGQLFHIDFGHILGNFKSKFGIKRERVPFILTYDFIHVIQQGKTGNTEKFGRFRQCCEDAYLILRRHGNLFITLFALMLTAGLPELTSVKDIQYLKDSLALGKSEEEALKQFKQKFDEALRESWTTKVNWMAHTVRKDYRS

[4] = target: Phosphatidylinositol 4,5-bisphosphate 3-kinase catalytic subunit gamma isoform (Homo sapiens, UniProt P48736); assay: Inhibition of PI3K gamma (unknown origin) using PIP2 as substrate measured after 1 hr in presence of ATP by ADP-glo luminescence assay
Sequence of Phosphatidylinositol 4,5-bisphosphate 3-kinase catalytic subunit gamma isoform (P48736 whole entry, canonical isoform): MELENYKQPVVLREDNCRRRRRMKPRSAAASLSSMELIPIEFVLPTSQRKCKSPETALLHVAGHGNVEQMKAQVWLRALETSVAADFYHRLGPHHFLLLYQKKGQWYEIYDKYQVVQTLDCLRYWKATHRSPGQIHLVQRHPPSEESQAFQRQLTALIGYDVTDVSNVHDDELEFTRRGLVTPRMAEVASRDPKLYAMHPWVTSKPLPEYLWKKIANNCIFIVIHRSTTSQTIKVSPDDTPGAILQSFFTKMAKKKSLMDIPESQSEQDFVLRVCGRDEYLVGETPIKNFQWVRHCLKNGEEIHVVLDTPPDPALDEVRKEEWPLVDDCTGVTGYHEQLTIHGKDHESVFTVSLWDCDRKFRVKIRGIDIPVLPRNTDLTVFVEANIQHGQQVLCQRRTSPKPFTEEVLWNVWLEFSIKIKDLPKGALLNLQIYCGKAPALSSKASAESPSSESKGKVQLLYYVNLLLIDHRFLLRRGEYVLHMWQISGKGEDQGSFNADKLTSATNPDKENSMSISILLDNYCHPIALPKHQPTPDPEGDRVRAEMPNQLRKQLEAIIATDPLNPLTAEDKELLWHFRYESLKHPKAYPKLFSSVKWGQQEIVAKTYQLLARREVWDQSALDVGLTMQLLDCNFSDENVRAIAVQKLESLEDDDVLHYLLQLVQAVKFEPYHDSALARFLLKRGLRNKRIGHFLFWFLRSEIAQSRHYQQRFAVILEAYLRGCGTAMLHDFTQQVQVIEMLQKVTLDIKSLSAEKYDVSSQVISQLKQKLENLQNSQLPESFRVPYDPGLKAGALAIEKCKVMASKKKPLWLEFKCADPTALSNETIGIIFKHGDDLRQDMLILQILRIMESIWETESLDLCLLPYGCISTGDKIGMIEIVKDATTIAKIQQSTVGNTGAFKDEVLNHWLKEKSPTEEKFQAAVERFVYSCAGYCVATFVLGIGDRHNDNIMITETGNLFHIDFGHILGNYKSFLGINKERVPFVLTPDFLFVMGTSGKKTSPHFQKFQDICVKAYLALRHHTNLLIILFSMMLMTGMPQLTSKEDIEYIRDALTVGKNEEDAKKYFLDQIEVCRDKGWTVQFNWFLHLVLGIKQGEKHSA

[5] = target: Serine/threonine-protein kinase mTOR (Homo sapiens, UniProt P42345); assay: Inhibition of mTOR (unknown origin) using ULight-4E-BP1 as substrate measured after 45 mins in presence of ATP by Lance ultra assay
[6] = Toxicity in 8 hrs fasted ICR mouse assessed as effect on blood glucose level at 20 mg/kg, iv measured upto 240 mins by glucometer analysis; assay type: organism-based; conditions: in vivo, 4 h
[7] = Toxicity in nude male Balb/c mouse assessed as effect on body weight at 20 mg/kg, po administered daily for 2 weeks; assay type: organism-based; conditions: in vivo, 336 h

SMILES: O=C(c1ccc(NC(=S)Nc2ccc(-c3nc(N4CCOCC4)nc(N4CCOCC4)n3)cc2)cc1)N1CCCC(CO)C1 (stereo unspecified)
- IC50 (HCC827): 1980 nM
- IC50 [1]: 36.6 nM
- IC50 (PC-9): 4320 nM

SMILES: O=C(Nc1ccc(C(=O)N2CCC[C@H]2CO)cc1)Nc1ccc(-c2nc(N3CCOCC3)nc(N3CCOCC3)n2)cc1
- inhibition at 10 µM (CYP3A4): 20%
- inhibition at 20 µM (hERG (KCNH2)): 15%
- inhibition at 10 µM (CYP1A2): 10%
- inhibition at 10 µM (CYP2D6): 25%
- inhibition at 10 µM (CYP2C9): 15%
- IC50 [2]: 9.3 nM
- IC50 [3]: 1.1 nM
- IC50 [4]: 4.8 nM
- IC50 [5]: 2.9 nM

SMILES: CN1CCN(C(=O)c2ccc(NC(=S)Nc3ccc(-c4nc(N5CCOCC5)nc(N5CCOCC5)n4)cc3)cc2)CC1
- IC50 [2]: 338 nM
- IC50 [3]: 169 nM
- IC50 [4]: 657 nM
- IC50 [5]: 127 nM

SMILES: O=C(c1ccc(NC(=S)Nc2ccc(-c3nc(N4CCOCC4)nc(N4CCOCC4)n3)cc2)cc1)N1CCN(C(=O)C2CCCO2)CC1 (stereo unspecified)
- IC50 (HCC827): 19800 nM
- IC50 [1]: 20.3 nM
- IC50 (PC-9): 32700 nM

SMILES: O=C(c1ccc(NC(=S)Nc2ccc(-c3nc(N4CCOCC4)nc(N4CCOCC4)n3)cc2)cc1)N1CCC[C@H]1CO
- IC50 [2]: 106 nM
- IC50 [3]: 35.4 nM
- IC50 [4]: 123 nM
- IC50 [5]: 24.3 nM

SMILES: O=C(Nc1ccc(C(=O)N2CCC[C@@H]2CO)cc1)Nc1ccc(-c2nc(N3CCOCC3)nc(N3CCOCC3)n2)cc1
- IC50 [2]: 34.1 nM
- IC50 [3]: 42.5 nM
- IC50 [4]: 32.3 nM
- IC50 [5]: 4.9 nM

SMILES: O=C(c1ccc(NC(=S)Nc2ccc(-c3nc(N4CCOCC4)nc(N4CCOCC4)n3)cc2)cc1)N1CCCCC1CO (stereo unspecified)
- IC50 [1]: 70.4 nM

SMILES: CN(C)C1CCN(C(=O)c2ccc(NC(=O)Nc3ccc(-c4nc(N5CCOCC5)nc(N5CCOCC5)n4)cc3)cc2)CC1 [GEDATOLISIB]
- Activity [6]: Toxic
- Activity [7]: Non-toxic

SMILES: COc1ncc(-c2ccc3nccc(-c4ccnnc4)c3c2)cc1NS(=O)(=O)c1ccc(F)cc1F [OMIPALISIB]
- IC50 [4]: 0.86 nM
